Experimental data published in ChEMBL document CHEMBL1201862, “PubChem BioAssay data set” (2004).
Activity calls are given as the source filed them.

Legend:
Large T antigen = Large T antigen (Simian virus 40, UniProt P03070); format: functional, Betapolyomavirus macacae;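 also: Confirmatory-stage PubChem screen for compounds that inhibit SV40 T antigen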
[1] = molecular target: Glucose-6-phosphate 1-dehydrogenase (Homo sapiens, UniProt P11413); assay: human G6PD enzyme inhibitors, dose response, selectivity assay for P. falciparum G6PD inhibitor project, biochemical, fluorescence (AID 504792); format: functional
Sequence of Glucose-6-phosphate 1-dehydrogenase (P11413 whole entry): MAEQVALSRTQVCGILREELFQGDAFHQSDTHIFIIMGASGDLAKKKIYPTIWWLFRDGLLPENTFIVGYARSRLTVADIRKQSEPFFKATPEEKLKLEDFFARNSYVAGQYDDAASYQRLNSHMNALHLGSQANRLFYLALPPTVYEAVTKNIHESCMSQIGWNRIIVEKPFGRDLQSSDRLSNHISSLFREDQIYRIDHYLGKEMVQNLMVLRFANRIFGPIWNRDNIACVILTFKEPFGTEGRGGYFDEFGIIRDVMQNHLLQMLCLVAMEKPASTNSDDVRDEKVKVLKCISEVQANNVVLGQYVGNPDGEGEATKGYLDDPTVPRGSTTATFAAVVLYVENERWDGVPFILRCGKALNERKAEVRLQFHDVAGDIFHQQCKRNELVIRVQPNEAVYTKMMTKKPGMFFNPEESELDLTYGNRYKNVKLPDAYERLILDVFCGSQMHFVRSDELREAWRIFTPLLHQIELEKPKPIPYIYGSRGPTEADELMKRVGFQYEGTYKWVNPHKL

[2] = molecular target: T1, C-C chemokine receptor type 6 (Homo sapiens, UniProt P51684); assay: CCR6 receptor antagonists, dose response, cell-based, luminescent beta-arrestin readout (AID 504728); format: functional
T1 sequence (P51684 whole entry): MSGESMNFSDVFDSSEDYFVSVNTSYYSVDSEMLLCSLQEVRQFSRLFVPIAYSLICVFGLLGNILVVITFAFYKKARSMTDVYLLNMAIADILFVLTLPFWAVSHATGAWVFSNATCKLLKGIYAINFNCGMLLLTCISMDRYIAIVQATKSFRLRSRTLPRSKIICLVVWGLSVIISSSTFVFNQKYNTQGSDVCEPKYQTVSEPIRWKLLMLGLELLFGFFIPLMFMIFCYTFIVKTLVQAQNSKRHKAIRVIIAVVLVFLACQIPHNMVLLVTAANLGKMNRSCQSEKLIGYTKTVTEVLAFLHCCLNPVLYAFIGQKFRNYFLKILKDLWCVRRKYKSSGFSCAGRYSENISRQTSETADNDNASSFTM

Beta-galactosidase = Beta-galactosidase (Escherichia coli, UniProt Q8VNN2); assay: beta-galactosidase enzyme inhibitors and activators, dose response, artefact control for CCR6 antagonist project, biochemical, E. coli enzyme, set 3 (AID 504712); format: functional
Sequence of Beta-galactosidase (Q8VNN2 whole entry): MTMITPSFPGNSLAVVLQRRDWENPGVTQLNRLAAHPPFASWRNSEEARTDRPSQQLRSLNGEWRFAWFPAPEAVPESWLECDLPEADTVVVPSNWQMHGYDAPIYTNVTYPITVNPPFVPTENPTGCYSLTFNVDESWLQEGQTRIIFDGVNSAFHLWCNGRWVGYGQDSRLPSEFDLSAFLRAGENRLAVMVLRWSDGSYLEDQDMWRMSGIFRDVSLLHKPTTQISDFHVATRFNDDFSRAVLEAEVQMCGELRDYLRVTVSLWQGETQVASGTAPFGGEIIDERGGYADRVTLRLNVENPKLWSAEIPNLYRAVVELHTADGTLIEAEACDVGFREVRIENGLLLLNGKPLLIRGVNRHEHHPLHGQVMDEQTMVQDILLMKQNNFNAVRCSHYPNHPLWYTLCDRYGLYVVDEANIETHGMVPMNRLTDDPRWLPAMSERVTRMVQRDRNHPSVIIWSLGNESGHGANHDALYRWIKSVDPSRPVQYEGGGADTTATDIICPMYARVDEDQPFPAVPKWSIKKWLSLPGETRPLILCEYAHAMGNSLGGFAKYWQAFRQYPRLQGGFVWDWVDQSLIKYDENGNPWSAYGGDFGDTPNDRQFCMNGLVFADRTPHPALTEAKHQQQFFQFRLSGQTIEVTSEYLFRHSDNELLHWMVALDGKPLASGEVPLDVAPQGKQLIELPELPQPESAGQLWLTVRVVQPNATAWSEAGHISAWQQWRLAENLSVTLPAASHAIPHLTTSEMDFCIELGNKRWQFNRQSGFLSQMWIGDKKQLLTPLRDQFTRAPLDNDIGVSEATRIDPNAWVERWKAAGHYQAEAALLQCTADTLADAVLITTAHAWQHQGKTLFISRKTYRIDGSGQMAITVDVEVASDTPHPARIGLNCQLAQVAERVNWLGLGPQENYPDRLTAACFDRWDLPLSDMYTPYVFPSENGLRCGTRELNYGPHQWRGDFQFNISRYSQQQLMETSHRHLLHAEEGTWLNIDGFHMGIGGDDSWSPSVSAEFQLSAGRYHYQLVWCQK

[3] = molecular target: Alkaline phosphatase, placental type (Homo sapiens, UniProt P05187); assay: PLAP enzyme inhibitors, confirmation, biochemical, luminescence (AID 1512); format: functional
Sequence of Alkaline phosphatase, placental type (P05187 whole entry): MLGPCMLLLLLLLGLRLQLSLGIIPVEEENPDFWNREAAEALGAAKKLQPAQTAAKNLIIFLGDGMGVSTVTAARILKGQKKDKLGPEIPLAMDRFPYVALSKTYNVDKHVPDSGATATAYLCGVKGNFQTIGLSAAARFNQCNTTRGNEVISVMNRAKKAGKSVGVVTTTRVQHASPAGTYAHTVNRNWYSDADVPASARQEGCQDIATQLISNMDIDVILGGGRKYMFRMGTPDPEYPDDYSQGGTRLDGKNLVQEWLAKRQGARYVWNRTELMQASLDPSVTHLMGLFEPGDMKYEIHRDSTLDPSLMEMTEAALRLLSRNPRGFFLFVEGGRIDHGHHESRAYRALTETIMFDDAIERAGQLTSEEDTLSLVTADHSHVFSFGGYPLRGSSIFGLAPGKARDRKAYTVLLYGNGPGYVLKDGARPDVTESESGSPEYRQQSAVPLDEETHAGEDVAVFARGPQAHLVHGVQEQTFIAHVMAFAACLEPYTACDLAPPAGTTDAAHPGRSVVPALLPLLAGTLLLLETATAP

[4] = molecular target: Neurotensin receptor type 1 (Homo sapiens, UniProt P30989); format: functional;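 also: Image-based confirmatory dose-response assay measuring agonist activity at NTR1; NTR1-expressing U2OS osteosarcoma cells imaged for beta-arrestin GFP spot formation; agonist potency where compounds increase beta-arrestin recruitment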
Sequence of Neurotensin receptor type 1 (P30989 whole entry): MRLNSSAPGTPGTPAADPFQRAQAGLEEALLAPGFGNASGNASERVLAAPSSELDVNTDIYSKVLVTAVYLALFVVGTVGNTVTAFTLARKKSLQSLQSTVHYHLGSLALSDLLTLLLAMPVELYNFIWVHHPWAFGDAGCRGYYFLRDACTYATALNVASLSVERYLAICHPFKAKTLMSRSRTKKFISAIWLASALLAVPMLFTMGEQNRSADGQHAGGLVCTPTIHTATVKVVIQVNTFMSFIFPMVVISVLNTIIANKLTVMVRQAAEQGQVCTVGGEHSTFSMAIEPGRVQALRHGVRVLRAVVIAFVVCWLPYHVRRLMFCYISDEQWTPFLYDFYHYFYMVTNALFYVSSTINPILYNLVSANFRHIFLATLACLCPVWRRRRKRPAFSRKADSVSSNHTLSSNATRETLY

[5] = microbe, parasite or virus in culture; format: functional; settings: Mycobacterium tuberculosis
Melanocortin receptor 4 = Melanocortin receptor 4 (Homo sapiens, UniProt P32245); assay: MC4R antagonist potency on cAMP, dose response, cell-based, TR-FRET, biased antagonists (AID 602298); format: functional;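 also: antagonist potency against agonist-stimulated cAMP production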
Sequence of Melanocortin receptor 4 (P32245 whole entry): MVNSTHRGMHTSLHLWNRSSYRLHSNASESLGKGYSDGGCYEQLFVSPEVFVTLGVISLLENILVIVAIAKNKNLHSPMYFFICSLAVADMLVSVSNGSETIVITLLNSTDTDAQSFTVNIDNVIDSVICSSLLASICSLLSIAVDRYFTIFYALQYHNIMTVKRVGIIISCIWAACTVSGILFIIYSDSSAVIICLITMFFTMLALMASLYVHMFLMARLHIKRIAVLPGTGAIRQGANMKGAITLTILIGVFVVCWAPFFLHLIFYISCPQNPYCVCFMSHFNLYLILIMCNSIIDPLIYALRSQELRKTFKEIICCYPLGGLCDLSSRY

[6] = nonselective inhibitors of cellular cAMP signaling, dose response, counter-screen for MC4R biased antagonist project, cell-based, TR-FRET cAMP detection (AID 602305); format: functional;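 also: U2OS cells stimulated with forskolin near its EC80 as the cAMP inducer; potency is for inhibition of forskolin-stimulated cAMP signaling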
[7] = molecular target: DNA dC->dU-editing enzyme APOBEC-3A (Homo sapiens, UniProt P31941); assay: APOBEC3A DNA deaminase inhibitors, dose response, biochemical (AID 504722); format: functional
Sequence of DNA dC->dU-editing enzyme APOBEC-3A (P31941 whole entry): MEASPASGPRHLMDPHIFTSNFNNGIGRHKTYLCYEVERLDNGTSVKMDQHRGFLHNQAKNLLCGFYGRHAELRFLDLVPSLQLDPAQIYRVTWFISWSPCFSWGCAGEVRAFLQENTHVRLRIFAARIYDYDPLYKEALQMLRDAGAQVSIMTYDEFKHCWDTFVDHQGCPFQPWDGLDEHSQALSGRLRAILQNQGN

[8] = molecular target: DNA dC->dU-editing enzyme APOBEC-3G (Homo sapiens, UniProt Q9HC16); assay: Dose Response confirmation of small molecule APOBEC3G DNA Deaminase Inhibitors via a fluorescence-based single-stranded DNA deaminase assay. [Related pubchem assays (depositor defined):AID493012, AID493028]; format: functional
Sequence of DNA dC->dU-editing enzyme APOBEC-3G (Q9HC16 whole entry): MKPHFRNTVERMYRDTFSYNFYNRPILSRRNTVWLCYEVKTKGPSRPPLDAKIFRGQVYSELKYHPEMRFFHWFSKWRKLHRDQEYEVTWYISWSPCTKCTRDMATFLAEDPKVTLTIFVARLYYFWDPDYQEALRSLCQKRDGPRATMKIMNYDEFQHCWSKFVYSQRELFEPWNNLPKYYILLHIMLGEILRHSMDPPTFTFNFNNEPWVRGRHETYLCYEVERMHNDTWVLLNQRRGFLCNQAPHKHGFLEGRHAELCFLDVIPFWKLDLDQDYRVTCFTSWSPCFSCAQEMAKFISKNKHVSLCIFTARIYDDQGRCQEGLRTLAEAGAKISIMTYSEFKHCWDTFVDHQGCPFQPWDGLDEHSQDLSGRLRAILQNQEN

HEK293 [9] = assay: NOD1 signaling inhibitors, primary screen, cell-based, luminescence, uHTS (AID 1578); format: functional; settings: Homo sapiens
HEK293 [10] = assay: cells; format: functional, cell-based; settings: Homo sapiens
HEK293 [11] = assay: cells; format: functional, cell-based; settings: Homo sapiens; remark: listed apart in the source
HEK293 [12] = assay: NOD2 signaling inhibitors in MDP-stimulated cells, cell-based, uHTS, luminescence (AID 2001); format: functional; settings: Homo sapiens
[13] = molecular target: T2, Acyl-homoserine lactone acylase PvdQ (Pseudomonas aeruginosa (strain LESB58), UniProt Q9I194); assay: P. aeruginosa PvdQ acylase inhibitors, dose response, biochemical, fluorescence, plate reader and imaging, cherry-picks (AID 493231)
T2 sequence (Q9I194 whole entry): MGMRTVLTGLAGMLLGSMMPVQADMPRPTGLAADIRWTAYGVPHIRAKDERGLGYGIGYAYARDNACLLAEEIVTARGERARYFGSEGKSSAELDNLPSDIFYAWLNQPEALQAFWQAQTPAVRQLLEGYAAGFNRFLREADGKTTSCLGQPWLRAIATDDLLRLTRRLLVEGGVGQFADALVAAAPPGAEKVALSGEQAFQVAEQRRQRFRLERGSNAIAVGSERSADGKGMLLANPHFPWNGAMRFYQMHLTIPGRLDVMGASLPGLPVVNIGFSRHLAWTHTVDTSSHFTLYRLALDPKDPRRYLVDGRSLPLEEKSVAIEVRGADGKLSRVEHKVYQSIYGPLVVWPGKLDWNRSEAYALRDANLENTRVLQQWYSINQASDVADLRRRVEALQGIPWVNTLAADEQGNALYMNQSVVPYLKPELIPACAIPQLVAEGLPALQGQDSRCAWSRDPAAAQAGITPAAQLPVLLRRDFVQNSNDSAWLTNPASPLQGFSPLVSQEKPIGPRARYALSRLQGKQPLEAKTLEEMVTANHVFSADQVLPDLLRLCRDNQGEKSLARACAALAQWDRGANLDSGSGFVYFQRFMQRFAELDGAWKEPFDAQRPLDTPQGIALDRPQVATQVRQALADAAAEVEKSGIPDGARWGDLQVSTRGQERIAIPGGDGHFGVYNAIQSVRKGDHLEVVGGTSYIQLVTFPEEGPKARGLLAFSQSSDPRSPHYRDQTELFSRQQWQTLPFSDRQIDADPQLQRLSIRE

[14] = Luminescence Cell-Based Dose Retest to Confirm Inhibitors of Cancer Stem Cells. [Related pubchem assays (depositor defined):AID2717, AID2721]; format: functional; settings: Homo sapiens
Protein skinhead-1 = molecular target: T3, Protein skinhead-1 (Caenorhabditis elegans, UniProt P34707); format: functional
T3 sequence (P34707 whole entry): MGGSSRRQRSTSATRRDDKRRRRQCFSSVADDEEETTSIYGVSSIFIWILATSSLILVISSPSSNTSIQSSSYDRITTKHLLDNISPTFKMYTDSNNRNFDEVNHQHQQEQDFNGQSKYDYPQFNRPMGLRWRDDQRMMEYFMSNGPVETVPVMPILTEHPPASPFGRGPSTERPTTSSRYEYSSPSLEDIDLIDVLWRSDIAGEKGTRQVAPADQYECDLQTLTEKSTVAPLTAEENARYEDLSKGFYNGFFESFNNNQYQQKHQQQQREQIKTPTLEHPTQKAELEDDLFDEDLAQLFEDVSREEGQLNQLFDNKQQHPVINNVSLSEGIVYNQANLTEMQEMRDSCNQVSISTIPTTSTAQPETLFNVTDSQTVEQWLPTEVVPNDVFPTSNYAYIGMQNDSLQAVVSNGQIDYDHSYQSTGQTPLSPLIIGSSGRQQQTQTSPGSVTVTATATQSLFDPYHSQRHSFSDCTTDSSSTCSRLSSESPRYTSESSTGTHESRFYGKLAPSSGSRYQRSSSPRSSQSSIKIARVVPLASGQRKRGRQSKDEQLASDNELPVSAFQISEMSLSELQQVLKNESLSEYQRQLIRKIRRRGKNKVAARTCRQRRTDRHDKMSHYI

BJ [15] = assay: cytotoxicity toward BJ-TERT fibroblasts, dose response, cell-based, RAS-independent, luminescence (AID 1933); format: functional; settings: Homo sapiens
BJ [16] = assay: cells; format: functional, cell-based; settings: Homo sapiens
BJ [17] = assay: cytotoxicity toward BJ-TERT-LT-ST fibroblasts, dose response, cell-based, RAS-independent, luminescence (AID 1935); format: functional; settings: Homo sapiens;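 also: BJ fibroblasts immortalized with TERT plus LT and ST oncogenes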
[18] = cytotoxicity toward DRD oncogenic fibroblasts, dose response, cell-based, non-viral oncogenic, luminescence (AID 1934); format: functional; settings: Homo sapiens
[19] = growth suppression of PTEN-null colon cells, dose response, cell-based, HCT116 PTEN knockout (AID 1047); format: functional;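 also: HCT116 colon tumor cells with PTEN knocked out; cells exposed to compound for 60 hours before readout; potency for loss of cell viability measured by luminescence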
[20] = growth suppression of beta-catenin-knockout colon cells, dose response, cell-based, HCT116, human colon tumor (AID 1045); format: functional;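 also: HCT116 colon tumor cells with beta catenin knocked out; cells exposed to compound for 60 hours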
[21] = molecular target: FAD-linked sulfhydryl oxidase ALR (Homo sapiens, UniProt P55789); assay: inhibitors of human ALR sulfhydryl oxidase, dose response, biochemical, H2O2 detection, luminescence, cherry-pick (AID 493248)
Sequence of FAD-linked sulfhydryl oxidase ALR (P55789 whole entry): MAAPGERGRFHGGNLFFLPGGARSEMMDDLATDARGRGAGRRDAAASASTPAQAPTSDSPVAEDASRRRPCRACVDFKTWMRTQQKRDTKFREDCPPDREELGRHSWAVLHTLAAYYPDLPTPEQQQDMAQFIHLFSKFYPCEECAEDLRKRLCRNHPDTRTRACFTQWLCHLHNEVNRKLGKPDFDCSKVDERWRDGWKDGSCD

[22] = Counterscreen for IDE inhibitors: Luminescence-based cell-based high throughput dose response assay to identify compounds that are cytotoxic to HEK cells. [Related pubchem assays: 434962 (Primary screen (IDE inhibitors in singlicate)), 449730 (Counterscreen (Cytotoxicity in triplicate)), 435028 (Confirmation (IDE inhibitors in triplicate)) …; format: functional; settings: HEK293
Insulin-degrading enzyme = molecular target: T4, Insulin-degrading enzyme (Homo sapiens, UniProt P14735); assay: Dose Response: Fluorescence polarization-based cell-based high throughput dose response assay for inhibitors of insulin-degrading enzyme (IDE). [Related pubchem assays: 434962 (Primary screen (IDE inhibitors in singlicate)), 449730 (Counterscreen (Cytotoxicity in triplicate)), 435028 (Confirmation (IDE inhibitors in triplicate)), 434984 (Summary …; format: functional
T4 sequence (P14735 whole entry): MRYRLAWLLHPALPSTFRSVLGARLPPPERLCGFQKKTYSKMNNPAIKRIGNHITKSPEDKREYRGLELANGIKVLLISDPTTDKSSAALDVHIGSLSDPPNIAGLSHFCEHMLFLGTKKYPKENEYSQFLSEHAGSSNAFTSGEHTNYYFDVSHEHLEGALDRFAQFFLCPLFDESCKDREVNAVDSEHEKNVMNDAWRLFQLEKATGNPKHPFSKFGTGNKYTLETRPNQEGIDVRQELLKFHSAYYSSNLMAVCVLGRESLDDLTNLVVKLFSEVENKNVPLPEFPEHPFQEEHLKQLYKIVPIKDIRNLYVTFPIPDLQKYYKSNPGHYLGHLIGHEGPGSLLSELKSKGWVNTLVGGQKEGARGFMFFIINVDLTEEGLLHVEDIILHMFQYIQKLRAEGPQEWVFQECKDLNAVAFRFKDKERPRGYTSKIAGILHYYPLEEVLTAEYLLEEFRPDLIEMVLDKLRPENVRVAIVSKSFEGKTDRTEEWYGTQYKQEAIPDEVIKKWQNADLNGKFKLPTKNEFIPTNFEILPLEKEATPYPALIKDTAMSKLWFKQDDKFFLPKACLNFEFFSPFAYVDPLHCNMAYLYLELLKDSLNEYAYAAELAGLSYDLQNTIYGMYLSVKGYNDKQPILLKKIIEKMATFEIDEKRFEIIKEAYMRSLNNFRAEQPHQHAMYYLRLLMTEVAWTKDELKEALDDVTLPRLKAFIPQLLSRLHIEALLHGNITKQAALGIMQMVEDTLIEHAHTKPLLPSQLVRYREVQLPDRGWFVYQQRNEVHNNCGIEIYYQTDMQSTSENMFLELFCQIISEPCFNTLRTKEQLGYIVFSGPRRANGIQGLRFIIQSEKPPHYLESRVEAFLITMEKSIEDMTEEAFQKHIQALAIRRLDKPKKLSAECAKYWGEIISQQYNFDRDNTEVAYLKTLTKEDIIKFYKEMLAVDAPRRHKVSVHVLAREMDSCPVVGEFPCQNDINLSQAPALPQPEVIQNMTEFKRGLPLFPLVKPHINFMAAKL

Sequence of Large T antigen (P03070 whole entry): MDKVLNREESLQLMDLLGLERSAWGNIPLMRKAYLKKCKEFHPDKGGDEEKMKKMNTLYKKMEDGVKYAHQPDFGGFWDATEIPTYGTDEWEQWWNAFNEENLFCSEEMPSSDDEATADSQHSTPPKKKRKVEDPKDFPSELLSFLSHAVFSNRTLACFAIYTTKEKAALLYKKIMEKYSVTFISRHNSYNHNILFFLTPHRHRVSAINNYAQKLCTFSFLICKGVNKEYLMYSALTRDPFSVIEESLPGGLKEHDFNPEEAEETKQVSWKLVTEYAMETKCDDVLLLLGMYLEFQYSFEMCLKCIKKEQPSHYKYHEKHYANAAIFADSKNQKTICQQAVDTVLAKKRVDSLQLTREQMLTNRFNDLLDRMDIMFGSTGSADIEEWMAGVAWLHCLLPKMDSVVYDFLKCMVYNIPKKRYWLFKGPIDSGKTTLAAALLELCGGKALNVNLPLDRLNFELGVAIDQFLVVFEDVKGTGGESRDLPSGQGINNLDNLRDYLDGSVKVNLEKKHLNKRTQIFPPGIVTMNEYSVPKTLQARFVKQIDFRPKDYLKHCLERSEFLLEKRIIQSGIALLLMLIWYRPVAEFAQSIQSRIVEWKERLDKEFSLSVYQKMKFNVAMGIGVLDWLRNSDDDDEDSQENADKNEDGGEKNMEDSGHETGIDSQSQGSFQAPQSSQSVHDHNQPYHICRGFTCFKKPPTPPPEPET

## COc1ccccc1N1C(=O)C=C(Sc2nc(C)cc(C)n2)C1=O
Large T antigen
  IC50: 24.3 µM (active)
[1]
  IC50: > 80 µM (inactive)
[2]
  IC50: > 66.6 µM (inactive)
Beta-galactosidase
  IC50: > 66.6 µM (inactive)

## COc1cccc(C=NNc2nn3cnnc3c3ccccc23)c1O
[3]
  IC50: > 100 µM (inactive)

## COc1cccc(OC)c1C(=O)Oc1ccc2c(c1)O/C(=C\c1ccncc1)C2=O
[4]
  EC50: 15.9 µM (active)

## c1ccc(Cn2c(CNc3nc4ccccc4n3CCN3CCCCC3)nc3ccccc32)cc1
[5]
  CC50: 27.1 µM (active)
[3]
  IC50: > 100 µM (inactive)
Melanocortin receptor 4
  IC50: > 64.6 µM (inactive)
[6]
  IC50: > 64.6 µM (inactive)

## Sc1cnc2ccccc2n1
[7]
  IC50: > 100 µM (inactive)
[8]
  IC50: 7.85 µM (active)

## Clc1ccc(Nc2ncnc3ccc(Br)cc23)cc1
HEK293 [9]
  EC50: 3.06 µM (active)
HEK293 [10]
  IC50: 0.95 µM (active)
HEK293 [11]
  IC50: > 20 µM (inactive)
HEK293 [12]
  IC50: 1.47 µM (active)
[13]
  AC50: 37.8 µM (active)
[14]
  AC50: 4.4 µM (active)
Protein skinhead-1
  IC50: > 100 µM (inactive)

## C#CCSc1ncc(-c2ccccc2)cn1
[13]
  AC50: 6.14 µM (active)
Protein skinhead-1
  IC50: 15.3 µM (active)

## c1ccc2c(CCNc3[nH]cnc4ncnc3-4)c[nH]c2c1
BJ [15]
  EC50: 24.4 µM (active)
BJ [16]
  EC50: 53.2 µM (active)
BJ [17]
  EC50: > 75 µM (not active)
[18]
  EC50: 30.5 µM (active)

## CCCOc1ccc(C(=O)c2ccccc2C(=O)OC2CCOC2=O)cc1OCCC (configuration not stated)
[4]
  EC50: 19.8 µM (active)
Melanocortin receptor 4
  IC50: > 64.6 µM (inactive)
[6]
  IC50: > 64.6 µM (inactive)

## Cn1nc(-c2ccc(Cl)cc2)c2cc(C(=O)NCCCN3CCCC3)sc21
BJ [15]
  EC50: 9.41 µM (active)
BJ [16]
  EC50: 23.1 µM (active)
[19]
  EC50: 4.65 µM (active)
[20]
  EC50: 4.01 µM (active)
BJ [17]
  EC50: > 150 µM (inconclusive)
[18]
  EC50: 12.4 µM (active)
[21]
  AC50: 6.39 µM (active)

## O=C1NC(=O)N(c2ccccc2)C(=O)/C1=C\C=C\Nc1ccccc1
[22]
  IC50: > 55.7 µM (not active)
Insulin-degrading enzyme
  IC50: > 55.9 µM (not active)
